# Measurements: paper PMC5209312, “Glycin-rich antimicrobial peptide YD1 from B. amyloliquefaciens, induced morphological alteration in and showed affinity for plasmid DNA of E. coli” (AMB Express, 2017)
# Where two headings read alike, the source gives them in different places. Ends that are not written are not given here.
# Legend:
# VRE 2 = format: cell-based, vancomycin-resistant enterococci
# Procedure: (§1) The minimal inhibitory concentration (MIC) was determined according to the method described by Weigand et al. ([2008]).
# VRE 5 = format: cell-based, vancomycin-resistant enterococci
# Procedure: as §1
# [1] = test system: Alcaligenes faecalis ATCC 1004; format: cell-based
# Procedure: as §1
# [2] = test system: Bacillus subtilis ATCC 6633; format: cell-based
# Procedure: as §1
# [3] = test system: Enterococcus faecalis ATCC 29212; format: cell-based
# Procedure: as §1
# [4] = test system: Escherichia coli KCTC 1923; format: cell-based
# Procedure: as §1
# [5] = test system: Escherichia coli KCTC1923 (E. coli), methicillin-resistant Staphylococcus aureus B15 (MRSA), and vancomycin-resistant enterococci (VRE); format: cell-based
# Procedure: as §1
# [6] = test system: Micrococcus luteus ATCC 9341; format: cell-based
# Procedure: as §1
# [7] = test system: Mycobacterium smegmatis ATCC 9341; format: cell-based
# Procedure: as §1
# [8] = test system: Pseudomonas aeruginosa KCTC 1637; format: cell-based
# Procedure: as §1
# [9] = test system: Salmonella Typhimurium KCTC 1925; format: cell-based
# Procedure: as §1
# VRSA = format: cell-based
# Procedure: as §1
# [10] = test system: Mycobacterium smegmatis ATCC 9341; format: cell-based; remark: listed apart in the source
# Procedure: A filter paper disc (8 mm, Toyo Roshi Kaisha, Japan) saturated with antimicrobial sample (40 µL) was placed on the surface of petri dish (87 mm × 15 mm) containing Mueller Hinton Agar (MHA). The plate was incubated at 37 °C, and a clear zone of inhibition surrounding the paper disc was measured in millimeter (mm). […] The titer of the antimicrobial substance solution, in AU/mL, was calculated as (1000/d) D, where D was the dilution factor, and d was the dose, the amount of antimicrobial substance solution added to each spot. AU and the zone of inhibition were measured against Mycobacterium smegmatis ATCC 9341 while optimizing CBSYD1 media.
# E. coli spheroplasts = format: cell-based, Escherichia coli; details: 2 h, 40 µg/mL
# Procedure: Spheroplasts are gram-negative bacteria in which nearly all of the outer membrane (OM) has been removed. Lysozyme destroys the peptide bonds in peptidoglycan and weakens the cell wall. E. coli was grown in 10 mL of MHB, incubated overnight at 37 °C on a shaker at 180 rpm. Each culture (100 µL) was used to inoculate 20 mL of fresh media and incubated at 37 °C for 2 h at 180 rpm. Spheroplasts were prepared as described by Kikuchi et al. ([2015]).
# Re-suspended spheroplasts and whole cells suspension were adjusted to OD 570 nm of 0.2 and 100 µL of each was added to a clear, flat-bottomed microtiter plate in duplicate wells. Ten microliters of YD1 in 10 mM Tris–HCl buffer (pH 7) was added to test wells for both preparations (spheroplasts and whole cells) at the indicated different final concentrations. To the control, 10 µL of 10 mM Tris–HCl buffer (pH 7) was added in lieu of YD1. The percentage of intact spheroplasts or whole cells was calculated as: =Sample OD at time X/Sample OD at time0×100
# Decrease in the OD of the suspension after addition of a membrane-active agent indicates lysis of spheroplasts.
# [11] = Procedure: (§2) The thermal stability of YD1 samples was determined by exposure to 20, 40, 60, 80 and 100 °C for 30 min and to 121 °C/105 kPa for 15 min before analyzing the residual activity. Similarly, pH stability was determined over a range of pH 2–10 using 1 M NaOH or HCl. The effect of protease enzyme on YD1 stability was determined at two different enzyme concentrations (1 and 2 mg/mL).
# protease enzymes = details: enzymes at 1 and 2 mg/mL
# Procedure: as §2
# [12] = test system: Staphylococcus aureus KCTC 1928; experiment: MIC determination; format: cell-based; details: method of Wiegand et al. 2008
# Procedure: as §1
# MRSA B15 = format: cell-based, methicillin-resistant Staphylococcus aureus; details: method of Wiegand et al. 2008
# Procedure: as §1
substance,measurement,setting,value
"APKGVQGPNG [YD1, Ala-Pro-Lys-Gly-Val-Gln-Gly-Pro-Asn-Gly]",MIC,VRE 2,64 µg/mL
same,MIC,VRE 5,64 µg/mL
same,MIC,[1]; ATCC 1004,>128 µg/mL
same,MIC,[2]; ATCC 6633,64 µg/mL
same,MIC,[3]; ATCC 29212,64 µg/mL
same,MIC,[4]; KCTC 1923,8 µg/mL
same,"MIC (range over E. coli KCTC1923, MRSA B15 and VRE)",[5],8 to 64 µg/mL
same,MIC,[6]; ATCC 9341,64 µg/mL
same,MIC,[7]; ATCC 9341,8 µg/mL
same,MIC,[8]; KCTC 1637,16 µg/mL
same,MIC,[9]; KCTC 1925,32 µg/mL
same,MIC,VRSA,>128 µg/mL
same,clear zone of inhibition,[10],up to 16 mm
same,intact surviving spheroplasts,E. coli spheroplasts,> 88%
same,thermal stability (activity),[11]; at or above 100 °C (100 °C 30 min; 121 °C/105 kPa 15 min),decreased sharply
same,pH stability (residual activity),"[11]; pH 4–9, tested pH 2–10 with 1 M NaOH or HCl",completely stable
same,thermal stability (residual activity),"[11]; up to 80 °C, 30 min exposure",completely stable
same,effect of protease enzymes on antimicrobial activity,protease enzymes,failed to alter
Bacitracin [reference compound],MIC,[12],>128 µg/mL
same,MIC,MRSA B15,64 µg/mL
same,MIC,"VRE 2; VRE 2, method of Wiegand et al. 2008",32 µg/mL
same,MIC,"VRE 5; VRE 5, method of Wiegand et al. 2008",64 µg/mL
same,MIC,"[1]; Alcaligenes faecalis ATCC 1004, method of Wiegand et al. 2008",>128 µg/mL
same,MIC,"[2]; Bacillus subtilis ATCC 6633, method of Wiegand et al. 2008",64 µg/mL
same,MIC,"[3]; Enterococcus faecalis ATCC 29212, method of Wiegand et al. 2008",2 µg/mL
same,MIC,"[4]; Escherichia coli KCTC 1923, method of Wiegand et al. 2008",>128 µg/mL
same,MIC,"[6]; Micrococcus luteus ATCC 9341, method of Wiegand et al. 2008",64 µg/mL
same,MIC,"[7]; Mycobacterium smegmatis ATCC 9341, method of Wiegand et al. 2008",>128 µg/mL
same,MIC,"[8]; Pseudomonas aeruginosa KCTC 1637, method of Wiegand et al. 2008",>128 µg/mL
same,MIC,"[9]; Salmonella Typhimurium KCTC 1925, method of Wiegand et al. 2008",64 µg/mL
same,MIC,"VRSA; VRSA, method of Wiegand et al. 2008",>128 µg/mL
